Measured values as given in PMC6631223, “Chain-Branched Polyhydroxylated Octahydro-1H-Indoles as Potential Leads against Lysosomal Storage Diseases” (Pharmaceuticals, 2019).
pIC50: −log10 of the molar value.

Tests used:
Assay type in all cases: biochemical
[1] = target: T1, β-Glucronidase (E.coli) (Escherichia coli, UniProt P05804); test: Glycosidase inhibition: β-glucuronidase (E. coli)
T1 construct: purchased Sigma-Aldrich Co
Source text: (§1) The enzymes α-glucosidase (from yeast, rice), β-glucosidase (from almonds, bovine liver), α-galactosidase (from coffee beans), β-galactosidase (from bovine liver), α-mannosidase (from jack beans), β-mannosidase (from snails), α-L-fucosidase (from bovine kidney), α-L-rhamnosidase (from Penicillium decumbens), β-glucuronidases (from Escherichia coli), α,α-trehalase (from porcine kidney), amyloglucosidase (from Aspergillus niger), p-nitrophenyl glycosides, and various disaccharides were purchased from Sigma-Aldrich Co. Brush border membranes were prepared from the rat small intestine according to the method of Kessler et al., and were assayed at pH 6.8 for rat intestinal maltase using maltose. For rat intestinal glucosidases and porcine kidney trehalase activities, the reaction mixture (0.2 mL) contained 25 mM substrate and the appropriate amount of enzyme, and the incubations were performed for 10 min at 37 °C. The reaction was stopped by heating at 100 °C for 3 min. After centrifugation (600 g; 10 min), 0.035 mL of the resulting reaction mixture were added to 2.1 mL of the Glucose CII-test Wako (Wako Pure Chemical Ind., Osaka, Japan). The absorbance at 505 nm was measured to determine the amount of the released D-glucose. Other glycosidase activities were determined using an appropriate p-nitrophenyl glycoside as substrate at the optimum pH of each enzyme. The reaction mixture (0.2 mL) contained 2 mM of the substrate and the appropriate amount of enzyme. The reaction was stopped by adding 0.4 mL of 400 mM Na2CO3. The released p-nitrophenol was measured spectrometrically at 400 nm.

[2] = target: T2, Lactase (β-Galactosidase) (Rattus norvegicus, UniProt Q02401); test: Glycosidase inhibition: lactase; details: lactase
T2 construct: Brush border membranes were prepared from the rat small intestine; from tissue; host or cells: rat small intestine brush border membranes (inferred)
T2 sequence (Q02401 868-1928): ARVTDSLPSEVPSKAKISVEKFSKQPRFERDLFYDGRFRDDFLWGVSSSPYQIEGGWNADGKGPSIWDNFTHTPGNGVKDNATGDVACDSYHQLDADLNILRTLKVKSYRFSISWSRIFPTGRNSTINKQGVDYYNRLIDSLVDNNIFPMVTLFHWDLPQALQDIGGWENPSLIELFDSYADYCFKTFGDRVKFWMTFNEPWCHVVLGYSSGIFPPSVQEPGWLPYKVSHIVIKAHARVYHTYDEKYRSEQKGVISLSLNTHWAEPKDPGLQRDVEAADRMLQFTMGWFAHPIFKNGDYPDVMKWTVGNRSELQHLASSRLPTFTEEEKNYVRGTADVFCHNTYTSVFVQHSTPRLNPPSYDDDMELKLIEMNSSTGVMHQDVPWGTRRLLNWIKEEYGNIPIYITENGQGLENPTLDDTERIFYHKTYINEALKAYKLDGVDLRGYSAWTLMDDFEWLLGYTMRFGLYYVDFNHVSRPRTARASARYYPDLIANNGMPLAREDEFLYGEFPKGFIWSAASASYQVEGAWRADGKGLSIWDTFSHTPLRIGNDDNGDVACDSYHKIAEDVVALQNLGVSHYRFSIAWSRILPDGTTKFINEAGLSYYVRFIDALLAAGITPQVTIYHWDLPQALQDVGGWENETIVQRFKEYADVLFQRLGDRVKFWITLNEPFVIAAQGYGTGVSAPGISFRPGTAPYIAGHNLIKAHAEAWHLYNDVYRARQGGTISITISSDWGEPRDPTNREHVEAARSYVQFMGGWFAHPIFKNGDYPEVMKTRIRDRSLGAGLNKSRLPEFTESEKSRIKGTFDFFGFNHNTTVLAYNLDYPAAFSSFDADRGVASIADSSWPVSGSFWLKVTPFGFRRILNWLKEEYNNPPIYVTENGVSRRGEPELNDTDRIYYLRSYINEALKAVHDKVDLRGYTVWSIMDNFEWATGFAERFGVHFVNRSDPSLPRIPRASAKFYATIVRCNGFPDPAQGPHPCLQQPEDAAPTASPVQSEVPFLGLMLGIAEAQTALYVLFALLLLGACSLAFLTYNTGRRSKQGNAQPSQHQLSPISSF
Source text: as §1

[3] = target: T3, α-Galactosidase (coffee beans) (Coffea arabica, UniProt Q42656); test: Glycosidase inhibition: α-galactosidase (coffee beans); details: α-galactosidase, coffee beans
T3 construct: purchased Sigma-Aldrich Co
T3 sequence (Q42656 16-378): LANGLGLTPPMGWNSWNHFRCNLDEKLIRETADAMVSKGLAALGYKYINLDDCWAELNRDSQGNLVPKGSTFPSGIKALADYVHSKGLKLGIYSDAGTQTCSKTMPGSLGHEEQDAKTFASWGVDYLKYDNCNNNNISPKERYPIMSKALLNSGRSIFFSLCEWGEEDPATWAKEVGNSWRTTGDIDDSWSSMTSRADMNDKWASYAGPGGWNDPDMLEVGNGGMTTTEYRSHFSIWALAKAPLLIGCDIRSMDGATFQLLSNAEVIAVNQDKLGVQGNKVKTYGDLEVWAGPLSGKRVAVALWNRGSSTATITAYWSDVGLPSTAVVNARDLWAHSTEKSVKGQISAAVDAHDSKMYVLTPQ
Source text: as §1

[4] = target: T4, α-L-Fucosidase (bovine kidney) (Bos taurus, UniProt Q2KIM0); test: Glycosidase inhibition: α-L-fucosidase (bovine kidney); details: α-L-fucosidase, bovine kidney
T4 construct: purchased Sigma-Aldrich Co; host or cells: bovine kidney
T4 sequence (Q2KIM0 23-468): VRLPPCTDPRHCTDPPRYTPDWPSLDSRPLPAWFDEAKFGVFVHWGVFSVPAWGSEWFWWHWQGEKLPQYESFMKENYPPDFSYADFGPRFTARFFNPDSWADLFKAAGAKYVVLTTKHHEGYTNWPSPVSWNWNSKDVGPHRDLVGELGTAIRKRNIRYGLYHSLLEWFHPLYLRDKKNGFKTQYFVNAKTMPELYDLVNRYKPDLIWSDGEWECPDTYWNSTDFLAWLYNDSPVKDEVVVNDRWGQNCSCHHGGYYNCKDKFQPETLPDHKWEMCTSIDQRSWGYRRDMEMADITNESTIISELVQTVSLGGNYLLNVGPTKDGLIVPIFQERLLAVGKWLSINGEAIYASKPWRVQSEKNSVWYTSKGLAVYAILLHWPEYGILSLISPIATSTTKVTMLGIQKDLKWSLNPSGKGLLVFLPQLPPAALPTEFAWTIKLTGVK
Source text: as §1

[5] = target: Rat intestinal maltase; test: Glycosidase inhibition: rat intestinal maltase; details: maltose, pH 6.8
Source text: as §1

[6] = target: T5, Amyloglucosidase (Aspergillus niger, UniProt P69328); test: Glycosidase inhibition: amyloglucosidase (Aspergillus niger)
T5 construct: purchased Sigma-Aldrich Co
T5 sequence (P69328 25-640): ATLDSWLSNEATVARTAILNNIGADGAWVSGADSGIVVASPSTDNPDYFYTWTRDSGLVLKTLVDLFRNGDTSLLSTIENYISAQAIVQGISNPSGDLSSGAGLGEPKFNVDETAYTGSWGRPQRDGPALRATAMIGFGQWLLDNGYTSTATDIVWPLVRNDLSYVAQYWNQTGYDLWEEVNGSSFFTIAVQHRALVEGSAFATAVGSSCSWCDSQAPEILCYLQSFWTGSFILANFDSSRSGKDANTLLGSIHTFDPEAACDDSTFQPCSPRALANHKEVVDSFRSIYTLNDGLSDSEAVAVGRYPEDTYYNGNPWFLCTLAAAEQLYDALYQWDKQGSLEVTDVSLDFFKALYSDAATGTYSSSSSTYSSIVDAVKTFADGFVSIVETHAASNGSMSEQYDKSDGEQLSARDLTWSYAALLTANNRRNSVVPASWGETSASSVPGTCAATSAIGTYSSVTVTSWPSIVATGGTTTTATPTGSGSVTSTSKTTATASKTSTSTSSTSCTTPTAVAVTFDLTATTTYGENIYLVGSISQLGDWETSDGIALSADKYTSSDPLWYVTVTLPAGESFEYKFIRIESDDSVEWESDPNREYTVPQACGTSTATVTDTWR
Source text: as §1

[7] = target: β-Mannosidase (snail); test: Glycosidase inhibition: β-mannosidase (snail)
Source text: as §1

[8] = target: T6, α-Glucosidase (rice) (Oryza sativa subsp. japonica, UniProt Q653V7); test: Glycosidase inhibition: α-glucosidase (rice)
T6 construct: purchased Sigma-Aldrich Co
T6 sequence (Q653V7 34-885): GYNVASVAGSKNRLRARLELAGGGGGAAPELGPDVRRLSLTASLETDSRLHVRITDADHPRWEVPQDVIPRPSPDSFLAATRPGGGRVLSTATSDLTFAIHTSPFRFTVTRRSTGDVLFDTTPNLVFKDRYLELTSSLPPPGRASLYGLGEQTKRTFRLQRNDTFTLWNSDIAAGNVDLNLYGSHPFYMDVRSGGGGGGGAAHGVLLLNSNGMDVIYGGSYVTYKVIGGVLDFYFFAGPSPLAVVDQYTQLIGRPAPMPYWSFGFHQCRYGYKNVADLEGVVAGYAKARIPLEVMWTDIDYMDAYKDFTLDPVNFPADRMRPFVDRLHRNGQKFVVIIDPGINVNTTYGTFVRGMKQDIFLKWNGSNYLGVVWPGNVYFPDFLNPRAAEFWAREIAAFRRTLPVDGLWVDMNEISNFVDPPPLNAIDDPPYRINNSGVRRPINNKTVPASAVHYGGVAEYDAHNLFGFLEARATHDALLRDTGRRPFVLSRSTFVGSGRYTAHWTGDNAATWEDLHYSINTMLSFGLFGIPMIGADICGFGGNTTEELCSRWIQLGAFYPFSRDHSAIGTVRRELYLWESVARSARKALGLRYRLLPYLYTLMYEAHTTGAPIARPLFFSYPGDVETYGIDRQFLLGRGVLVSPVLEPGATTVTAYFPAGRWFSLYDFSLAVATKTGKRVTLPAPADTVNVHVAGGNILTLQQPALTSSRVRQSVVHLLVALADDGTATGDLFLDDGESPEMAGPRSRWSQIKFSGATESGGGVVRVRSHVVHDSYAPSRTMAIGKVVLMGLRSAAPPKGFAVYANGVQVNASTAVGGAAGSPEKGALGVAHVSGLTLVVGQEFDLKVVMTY
Source text: as §1

[9] = target: T7, α-Glucosidase (yeast) (Saccharomyces cerevisiae, UniProt P53341); test: Glycosidase inhibition: α-glucosidase (yeast)
T7 construct: purchased Sigma-Aldrich Co
T7 sequence (P53341 whole entry): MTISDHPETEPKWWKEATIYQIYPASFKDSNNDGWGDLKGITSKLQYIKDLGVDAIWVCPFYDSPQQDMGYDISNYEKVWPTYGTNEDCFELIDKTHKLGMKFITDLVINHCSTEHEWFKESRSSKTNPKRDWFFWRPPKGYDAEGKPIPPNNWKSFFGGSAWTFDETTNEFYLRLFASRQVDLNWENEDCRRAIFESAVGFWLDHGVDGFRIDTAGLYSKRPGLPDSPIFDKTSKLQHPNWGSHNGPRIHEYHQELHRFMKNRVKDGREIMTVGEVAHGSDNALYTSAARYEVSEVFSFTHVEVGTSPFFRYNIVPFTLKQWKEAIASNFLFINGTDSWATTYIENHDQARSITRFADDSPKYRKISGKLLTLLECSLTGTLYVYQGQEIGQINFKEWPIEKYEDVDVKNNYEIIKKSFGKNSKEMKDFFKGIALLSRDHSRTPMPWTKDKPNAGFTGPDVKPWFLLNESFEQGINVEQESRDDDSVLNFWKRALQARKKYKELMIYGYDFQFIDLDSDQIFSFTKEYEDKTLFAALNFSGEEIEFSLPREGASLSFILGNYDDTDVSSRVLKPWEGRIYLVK
Source text: as §1

[10] = target: β-Glucosidase (almond); test: Glycosidase inhibition: β-glucosidase (almond)
Source text: as §1

T1 sequence (P05804 whole entry): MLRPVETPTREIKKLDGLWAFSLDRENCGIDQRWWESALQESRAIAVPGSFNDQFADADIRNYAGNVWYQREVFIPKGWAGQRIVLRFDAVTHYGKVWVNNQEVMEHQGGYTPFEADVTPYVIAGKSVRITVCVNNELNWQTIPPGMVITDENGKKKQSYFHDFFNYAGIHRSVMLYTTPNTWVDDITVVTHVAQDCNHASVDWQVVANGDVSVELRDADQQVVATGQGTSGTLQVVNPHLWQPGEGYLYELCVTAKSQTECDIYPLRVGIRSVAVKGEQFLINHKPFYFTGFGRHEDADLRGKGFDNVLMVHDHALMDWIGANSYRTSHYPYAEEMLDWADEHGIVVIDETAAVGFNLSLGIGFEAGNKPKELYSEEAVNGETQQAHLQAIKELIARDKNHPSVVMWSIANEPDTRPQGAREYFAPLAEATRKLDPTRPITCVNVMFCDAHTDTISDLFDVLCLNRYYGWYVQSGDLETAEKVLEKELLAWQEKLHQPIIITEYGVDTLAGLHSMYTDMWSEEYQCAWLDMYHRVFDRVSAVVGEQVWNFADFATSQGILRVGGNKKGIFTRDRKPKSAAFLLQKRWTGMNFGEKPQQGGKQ

Structure (SMILES): OCCN1C[C@H](O)[C@@H](O)[C@H](O)[C@H]1CO [Miglitol, miglitol, reference compound]
- pIC50 [1]: < 3.00
- pIC50 [2]: < 3.00
- pIC50 [3]: < 3.00
- pIC50 [4]: < 3.00
- pIC50 [5]: < 3.00
- pIC50 [6]: < 3.00
- pIC50 [7]: < 3.00
- pIC50 [8]: 6.77
- pIC50 [9]: 4.15
- pIC50 [10]: < 3.00
